These results are taken from paper PMC3877285, “A New Strategy for Enhancing the Oral Bioavailability of Drugs with Poor Water-Solubility and Low Liposolubility Based on Phospholipid Complex and Supersaturated SEDDS” (PLoS ONE, 2013).

Where “and” joins values, the source holds several entries; their conditions need not be identical. Equal values may be shown once.

Data set [1] can be described thus: In vitro lipolysis study. The format is in vitro ADME. The following applies: lipolysis medium pH 6.5, pancreatic lipase, 37°C, 20 mg scutellarin equivalent, n = 3. Here is the method: In vitro lipolysis studies were performed as previously described, [22] with minor modifications. Briefly, lipolysis medium was prepared in advance, containing 5 mM bile salt, 2 mM trizma maleate buffer, 1.25 mM phosphatidyl choline, and 150 mM sodium chloride, and was adjusted to pH 6.5 with 0.1 M NaOH. Then according to the single-dosage of commercial oral solution detailed as 70 mg scutellarin administrated into 900 mL GI medium, scutellarin powder, SPC, conventional SEDDS and super-SEDDS with a dose of 20 mg (equivalent to scutellarin) were dispersed in 250 mL warmed lipolysis medium (37°C), with a stirring rate of 100 rpm. After that, lipolysis was initiated by adding 50 mL freshly prepared pancreatic lipase solution (2000 TBU/mL, pH 6.5, 37°C), then controlled by constantly pumping 0.15 M CaCl2 with a rate of 0.25 mL/min. Over the lipolysis period, pH value was maintained at 6.5 by a pH-stat device (902 Titrando, Metrohm, Switzerland). At pre-determined time intervals (5, 10, 20, 30, 45, 60, 90, 120 min), 5 mL digested medium was taken and filtered by 0.45 µm polypropylene membrane. The filtered samples were immediately diluted 10 times with acetonitrile to stop lipolysis and induce protein precipitation. At last, the diluted samples were centrifuged at 10,000 rpm for 10 min (Centrifuge 5810R, Eppendorf, Germany), and subsequently analyzed by HPLC (as mentioned later).

Data set [2] in a line: Ex vivo intestinal absorption, everted intestinal sac. The following applies: everted rat jejunum sac, 50 µg/mL scutellarin. Type of data set: in vitro ADME, Sprague-Dawley (SD) rats. Here is the method:
An everted intestinal sac experiment, modified according to the method previously described, was adopted to evaluate the ex vivo intestinal absorption of scutellarin. Kreb-Ringer’s (K–R) solution, containing 342.0 mM NaCl, 6.7 mM KCl, 5.9 mM CaCl2·2H2O, 5.3 mM MgCl2, 59.5 mM NaHCO3, 2.1 mM NaH2PO4 and 5.5 mM glucose, was prepared in advance. Half was cooled in 4°C refrigerator and the rest was warmed in a 37°C water bath. Scutellarin powder, SPC, conventional SEDDS and Super-SEDDS were dispersed in warmed K–R solution with a concentration of 50 µg/mL scutellarin, approximate to the lowest released concentration of drug during the lipolysis test. Male Sprague-Dawley (SD) rats were fasted overnight and then anesthetized with an intraperitoneal injection of chloral hydrated (10%, w/v) at a dose of 0.4 mL per 100 g. After dissection of the abdominal wall, the jejunum (21 cm from the pylorus) was carefully isolated without any mesentery, clipped into segments of 10 cm, and quickly rinsed in cooled K–R solution. […] After the tests, the length and width of the intestinal segments were measured for the calculation of uptake amount per unit area.

On the set-up of data set [3]: method as in PMID 16269273. The following applies: cited from earlier work.
Data set [4] can be described thus: In vivo pharmacokinetics after oral dosing. The following applies: male, Sprague-Dawley, rat, plasma, 40 mg/kg equivalent to scutellarin, SD rats, n = 5, mean ± SD. Here is the method:
20 male SD rats (300∼350 g) were fasted but allowed free access to water for 12 h, then divided randomly into 4 groups for the pharmacokinetics experiments of scutellarin powder, SPC, conventional SEDDS and Super-SEDDS. In order to avoid failure detection of plasma drug, the various formulations were orally administrated to rats at a dose of 40 mg/kg, according to the highest dosage of commercial oral solution, with a ceiling volume of 10 mL/kg when dispersed by purified water. The blood samples of 0.5 mL were collected in a 1.5 mL heparin treated EP tube from the orbital venous prior to the dose and at 0.5, 1, 2, 3, 4, 5, 6, 8, 10, 12, 24 and 36 h after the dose. The plasma was immediately isolated from whole blood by centrifugation (4000 rpm, 10 min) at room temperature and then stored in a −80°C freezer until analysis.
An HPLC analysis system (HP 1100 series, Agilent Technologies, Wilmington, Germany) of a quaternary pump, an autosampler and a UV detector with an ODS-C18 column (250 mm×4.6 mm i.d., Sepax Technologies Inc., Delaware, USA), was used for the determination of scutellarin. The mobile phase was a mixture of methanol, acetonitrile and 50 mM KH2PO4, at a ratio of 22∶15:63 (v/v/v), with pH of 2.5 adjusted by phosphoric acid. The detection was carried out at a wavelength of 335 nm, with a flow rate of 1.0 mL/min at room temperature.
200 µL of thawed plasma was removed to a 10 mL EP tube. 50 µL of internal standard working solution (20 µg/mL of rutin in methanol) was added and subsequently acidified by 100 µL of phosphoric acid (10 wt %) for 10 min. Then, 3 mL of ethyl acetate was infused for extracting scutellarin from plasma. After 30 min vortex, samples were centrifuged at 4000 rpm for 10 min, and the isolated supernatant was concentrated under nitrogen gas flow in bath of 40°C. Before HPLC detection, it needed to be re-dissolved by 100 µL of HPLC mobile phase and centrifuged at 10,000 rpm for 5 min. The whole analytical methodology including plasma treatment and HPLC detection was validated by accuracy and precision (see Table 2) as previously described.
The plasma data was analyzed in batches by DAS 2.0 (Mathematical Pharmacology Professional Committee of China, Shanghai, China). Peak plasma concentration (Cmax) and the time to reach Cmax (Tmax) were based on measured values. Area under the curve (AUC0-t) was calculated via a trapezoidal area method. […] All values were expressed as the mean ± standard deviation. The significant differences between each group were determined by one way analysis of variance (ANOVA) using the statistical package for social sciences software (SPSS® version 17.0, SPSS Inc., Shanghai, China), with the significance defined as p<0.05 and high significance as p<0.001.

Consider `O=C(O)[C@H]1O[C@@H](Oc2cc3oc(-c4ccc(O)cc4)cc(=O)c3c(O)c2O)[C@H](O)[C@@H](O)[C@@H]1O` [Scutellarin powder, Scutellarin], for which the cumulative dissolution percentage in data set [1] is 70% and 70.1±3.2%. The “intestinal absorption (cumulative)” value in data set [2] turned out to be 0.04 µg/cm^2. Besides, in data set [3], the pKa is on record as 3.29. Moreover, in data set [4], the AUC(0-t) was 2670 ± 404 ng·h/mL, the Cmax was determined as 178 ± 35 ng/mL and the Tmax came to 5.2 ± 0.8 h. Besides, in data set [4] (read-out: T1/2z (converted)), the half-life was 34.8 ± 22.8 h.
